In patent US20070031907A1, “Anaplastic lymphoma kinase assay, reagents and compositions thereof” (Istituto Nazionale Per Lo Studio E La Cura Dei Tumori, priority 2003, published 2007):

Target: T1, purified rALK (Homo sapiens, UniProt Q9UM73)
T1 construct: A portion of ALK, stretching from amino acids Leu^1073 to Ala^1459, has been cloned into the baculovirus transfer vector; made in house; host or cells: Sf9 (Spodoptera frugiperda) insect cells, baculovirus (pBlueBacHis2C, MaxBac 2.0)
Assay: ELISA-based in vitro kinase assay
Assay type: biochemical
Description: ELISA-based in vitro Kinase Assay A Nunc Immuno 96 well plate was incubated overnight at 37° C. with coating solution (125 μl/well) containing ALK peptide substrate (SEQ ID N. 1 or SEQ ID N. 2) at various concentrations in PBS. The wells were then washed with 200 μl of wash buffer (PBS-Tween 0.05%) and left to dry for at least 2 hours at 37° C. […] The reaction mix was then removed and wells were washed 5 times with 200 μl of wash buffer. Phosphorylated peptide was detected using 100 μl/well of a mouse monoclonal anti-phosphotyrosine antibody (clone 4G10 UpstateBiotech Ltd) diluted 1:500 in PBS+4% BSA. After 30 minutes incubation at room temperature the antibody was removed and wells were washed as described above. 100 μl of a secondary antibody (anti-mouse IgG, Horseradish Peroxidase linked whole antibody, from sheep, Amersham Pharmacia Biotech) diluted 1:1000 in PBS+4% BSA was added to each well and the plate was incubated again for 30 minutes at room temperature before washing as above. The plate was developed using 100 μl/well TMB Substrate Solution (Endogen) and the reaction was stopped by adding an equal volume of H2SO4 0.18 M. Finally, the absorbance was read at 450 or 490 nm using an Ultrospec® 300 spectrophotometer (Amersham-Pharmacia Biotech).

T1 sequence (Q9UM73 1073-1459): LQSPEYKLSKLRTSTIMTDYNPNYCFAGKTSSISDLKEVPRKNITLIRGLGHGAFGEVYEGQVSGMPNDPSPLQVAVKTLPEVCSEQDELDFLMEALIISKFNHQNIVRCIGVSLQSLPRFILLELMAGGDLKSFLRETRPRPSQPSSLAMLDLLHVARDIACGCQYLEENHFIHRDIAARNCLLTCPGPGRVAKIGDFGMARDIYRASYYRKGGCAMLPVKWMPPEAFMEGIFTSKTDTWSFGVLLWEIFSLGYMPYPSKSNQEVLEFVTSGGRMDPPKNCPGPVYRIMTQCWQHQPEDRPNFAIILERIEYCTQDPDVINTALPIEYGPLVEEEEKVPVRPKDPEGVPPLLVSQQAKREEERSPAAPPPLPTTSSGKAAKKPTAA

## CN[C@@H]1C[C@H]2O[C@@](C)([C@@H]1OC)n1c3ccccc3c3c4c(c5c6ccccc6n2c5c31)C(=O)NC4 [Staurosporine]
42 μM peptide substrate, 20 ng rALK, 30° C., 15 mins
  concentration reaching maximum inhibition of rALK activity: 1 µM
Positive control for screening
  concentration at which effective as an ALK inhibitor: 0.2 to 0.3 µM
